Tests used:
human CD34+ cells = assay: Expansion of human CD34+ cells (EC50, CD34+CD45RA- cell count); type: cell-based; conditions: concentration that results in a 50% increase in CD34+CD45RA- cell count compared to vehicle cultures (DMSO); for EC50: Homo sapiens, read-out: Biological data (EC50)*
human CD34+ CB cells = type: cell-based; conditions: for gene transfer efficiency to human CD34+ CB cells and CD34+ subsets, variants of Cmpd1: prestimulated 16 hours and transduced 6 hours in presence of compound, FACS after 3 additional days (FIGS. 16A, 16B)
Protocol: The cells were then exposed for 6 hours to a GFP lentiviral vector (10^6 iu/mL) in the same medium. […] At the end of the culture media, cells were harvested, stained for CD34 and analysed by flow cytometry.
The vector constructs were sequence-verified. […] Virus-containing supernatants were concentrated by ultracentrifugation to achieve titers of 0.5×10^9 to 5×10^9 infectious units/ml. Viral titers were determined by transducing HeLa cells with three dilutions of the lentiviral vector.
Umbilical cord blood (CB) and mobilized peripheral blood (mPB) cells were collected with consent according to procedures approved by the Research Ethics Board of the University of British Columbia. CD34^+ enriched adult bone marrow cells were purchased from […] Technologies. CD34^+ CB and mPB cells were enriched to >90% purity using first RosetteSep™ CD34 preenrichment cocktail ([…] Technologies) followed by positive selection using magnetic beads (EasySep kit, […] Technologies). In some cases additional enrichment was done by sorting CD34^+ cells using an Influx II sorter (BD Bioscience). […] All flow cytometric analysis was performed using a LSRII Fortessa® (BD Biosciences).

[1] = test system: macaque umbilical cord blood CD34+ cells; conditions: after transplantation of co-cultured macaque cord blood CD34+ cells

| EC50 (human CD34+ cells) [µM] | Structure (SMILES) | other results |
| --- | --- | --- |
| < 0.1 | COC(=O)c1ccc2c(c1)[nH]c1cc(Cc3ccccc3)nc(NCCCN3CCCCC3)c12 [Cmpd 77] |  |
| < 0.1 | COC(=O)c1ccc2c(c1)[nH]c1cc(Cc3ccccc3)nc(NCCN3CCCC3)c12 [Cmpd 78] |  |
| < 0.1 | COC(=O)c1ccc2c(c1)[nH]c1cc(Cc3ccccc3)nc(N(C)CCCN(C)C)c12 [Cmpd 79] |  |
| 0.1 to 0.25 | Cn1nnc(-c2ccc3c(c2)[nH]c2cc(Cc4ccccc4)nc(NCCCN4CCCCC4)c23)n1 [Cmpd 80] |  |
| < 0.1 | COC(=O)c1ccc2c(c1)[nH]c1cc(Cc3cccc(OC)c3)nc(NCCCCN3CCCC3)c12 [Cmpd 81] |  |
| < 0.1 | COC(=O)c1ccc2c(c1)[nH]c1cc(Cc3cccc(O)c3)nc(NCCCCN3CCCC3)c12 [Cmpd 82] |  |
| > 1 | COC(=O)c1ccc2c(c1)[nH]c1cc(Cc3ccsc3)nc(NCCN(C)CCNC(=O)OC(C)(C)C)c12 [Cmpd 83] |  |
| 0.5 to 1 | COC(=O)c1ccc2c(c1)[nH]c1cc(Cc3cccnc3)nc(NCCCN3CCOCC3)c12 [Cmpd 84] |  |
| 0.1 to 0.25 | COC(=O)c1ccc2c(c1)[nH]c1cc(Cc3ccsc3)nc(NCCCN3CCCCC3)c12 [Cmpd 85] |  |
| > 1 | COC(=O)c1ccc2c(c1)[nH]c1cc(Cc3cccnc3)nc(N3CCC(N4CCCC4)CC3)c12 [Cmpd 86] |  |
| > 1 | CNCCCN(C)c1nc(Cc2cccnc2)cc2[nH]c3cc(C(=O)OC)ccc3c12 [Cmpd 87] |  |
| 0.1 to 0.25 | COC(=O)c1ccc2c(c1)[nH]c1cc(Cc3ccsc3)nc(N[C@H]3CC[C@H](N)CC3)c12 [Cmpd 88] |  |
| 0.25 to 0.5 | COC(=O)c1ccc2c(c1)[nH]c1cc(Cc3ccsc3)nc(NCCN(C)CCN)c12 [Cmpd 89] |  |

The remaining lines, values behind:

| Structure (SMILES) | EC50 (human CD34+ cells) [µM] | other results |
| --- | --- | --- |
| COC(=O)c1ccc2c(c1)[nH]c1nc(Cc3ccccc3)nc(N(C)CCCN3CCCCC3)c12 [Cmpd 3] | < 0.1 | gene transfer efficiency to human CD34+ CB cells and CD34+ subsets, variants of Cmpd1 (human CD34+ CB cells): increase gene transfer efficiency |
| COC(=O)c1ccc2c(c1)[nH]c1nc(Cc3cccc(F)c3)nc(NCCCN3CCCCC3)c12 [Cmpd 4] | < 0.1 | gene transfer efficiency to human CD34+ CB cells and CD34+ subsets, variants of Cmpd1 (human CD34+ CB cells): increase gene transfer efficiency |
| CN(CCCNC(=O)CNC(=O)CNC(=O)CN)CCCNc1nc(Cc2ccccc2)nc2[nH]c3cc(-c4nnn(C)n4)ccc3c12 [Cmpd 5, 2-amino-N-(2-((2-((3-((3-((2-benzyl-7-(2-methyl-2H-tetrazol-5-yl)-9H-pyrimido[4,5-b]indol-4-yl)amino)propyl)(methyl)amino)propyl)amino)-2-oxoethyl)amino)-2-oxoethyl)acetamide] | 0.25 to 0.5 | gene transfer efficiency to human CD34+ CB cells and CD34+ subsets, variants of Cmpd1 (human CD34+ CB cells): increase gene transfer efficiency |
| COC(=O)c1ccc2c(c1)[nH]c1nc(Cc3ccccc3)nc(SCCCN3CCCCC3)c12 [Cmpd 6, methyl 2-benzyl-4-((3-(piperidin-1-yl)propyl)thio)-9H-pyrimido[4,5-b]indole-7-carboxylate] | 0.25 to 0.5 | gene transfer efficiency to human CD34+ CB cells and CD34+ subsets, variants of Cmpd1 (human CD34+ CB cells): increase gene transfer efficiency |
| CCCOC(=O)c1ccc2c(c1)[nH]c1ncnc(NCCCN3CCCCC3)c12 [Cmpd 7, propyl 4-((3-(piperidin-1-yl)propyl)amino)-9H-pyrimido[4,5-b]indole-7-carboxylate] | > 1 | gene transfer efficiency to human CD34+ CB cells and CD34+ subsets, variants of Cmpd1 (human CD34+ CB cells): not observed |
| COC(=O)c1ccc2c(c1)[nH]c1nc(-c3ccccc3)nc(NCCCN3CCCCC3)c12 [Cmpd 8, methyl 2-phenyl-4-((3-(piperidin-1-yl)propyl)amino)-9H-pyrimido[4,5-b]indole-7-carboxylate 2,2,2-trifluoroacetate] |  | Biological data (EC50)* (human CD34+ cells): inactive; gene transfer efficiency to human CD34+ CB cells and CD34+ subsets, variants of Cmpd1 (human CD34+ CB cells): not observed |
| COC(=O)c1cnc2c(c1)[nH]c1nc(Cc3ccccc3C)nc(NCCCN3CCCC3)c12 [Cmpd 67] | 0.25 to 0.5 |  |
| CNCCCNc1nc(Cc2ccccc2C)nc2[nH]c3cc(C(=O)OC)cnc3c12 [Cmpd 68] | 0.5 to 1 |  |
| Cn1nnc(-c2cnc3c(c2)[nH]c2nc(Cc4ccccc4)nc(N[C@H]4CC[C@H](N)CC4)c23)n1 [Cmpd 69] | 0.25 to 0.5 |  |
| COC(=O)c1cnc2c(c1)[nH]c1nc(Cc3cccc(F)c3)nc(NCCCN3CCCCC3)c12 [Cmpd 70] | > 1 |  |
| COC(=O)c1cnc2c(c1)[nH]c1nc(Cc3cccc(F)c3)nc(NCCCN(C)CCCN)c12 [Cmpd 71] | 0.25 to 0.5 |  |
| CNCCCNc1nc(Cc2cccc(F)c2)nc2[nH]c3cc(C(=O)OC)cnc3c12 [Cmpd 72] | > 1 |  |
| COC(=O)c1cnc2c(c1)[nH]c1nc(Cc3ccccc3)nc(NCC(C)CN(C)C)c12 (stereo not shown) [Cmpd 73] | 0.5 to 1 |  |
| COC(=O)c1cnc2c(c1)[nH]c1nc(Cc3ccccc3)nc(N3CCC(N(C)C)CC3)c12 [Cmpd 74] | 0.1 to 0.25 |  |
| CCN(CC)CCN(CC)c1nc(Cc2ccccc2)nc2[nH]c3cc(C(=O)OC)cnc3c12 [Cmpd 75] | 0.25 to 0.5 |  |
| COC(=O)c1ccc2c(c1)[nH]c1ccnc(NCCCN3CCCCC3)c12 [Cmpd 76] | > 1 |  |
| CC(C)n1cnc2c(NCCc3ccc(O)cc3)nc(-c3csc4ccccc34)nc21 [SR1, StemRegenin 1, reference compound] |  | enhancement of lentiviral-mediated gene transfer (in words) (human CD34+ CB cells; SR1 0.75 μM, assessed 3 days post-infection on CD34+ cells from cord blood): not observed; proportion of primate CD45+ cells in the blood of transplanted mice [1]: not obtained |
